Data: paper doi:10.1101/2025.08.01.667454v3 (biorxiv, 2025)

Assays:
BAF60A^YLD+SWIB [1] = biological target: T1, BAF60A^YLD+SWIB (Homo sapiens, UniProt Q96GM5); assay: fluorescence polarization competition with PU.[…]; type: binding
BAF60A^YLD+SWIB [2] = biological target: T1, BAF60A^YLD+SWIB; assay: SPR steady state, amine-coupled protein; type: binding

IC50 (BAF60A^YLD+SWIB [1]) [µM]	Kd (BAF60A^YLD+SWIB [2]) [µM]	Structure (SMILES)
9.13	8.89	CC1=C(C(=O)Nc2cccc(C)n2)C(c2cccc(Br)c2)C2=C(CCCC2=O)N1 (stereo not shown) [PPSC-001]
33	22.6	COC(=O)c1ccc(Cn2c(C)nc3cc4c(cc32)OCCO4)cc1 [PPSC-002]
